In paper PMC11883425, “The synthesis and investigation of novel 3-benzoylbenzofurans and pyrazole derivatives for anti-HIV activity” (RSC Medicinal Chemistry, 2025):
Where two headings read alike, the source gives them in different places.

Tests used:
[1] = Cytotoxicity in TZM-bl cells by MTT assay; assay type: cell-based; conditions: human, MTT assay, 48 hours, mean ± SEM
Description: (§1) All cell culture reagents and cell growth medium were purchased from Sigma-Aldrich/Merck. The cell lines are TZM-bl cells (HeLa cells derived cell that is genetically engineered to contain CD4 and CCR5/CXCR4 receptor) were obtained from NIH AIDS Reagent Program and HEK 293T (derived from human embryonic kidney cells) were received as donations from the lab of Dr Patience Mthunzi, Biophotonics laboratory, CSIR. […] The cells were cultured in T-75 culture flasks (Lasec SA (Pty) Ltd Johannesburg) in Dulbecco's modified Eagle's medium (DMEM) with 3.7 g L^−1 […], 0.05% (v/v) gentamicin/mL, 1% penicillin/streptomycin and 10% heat-inactivated fetal bovine serum (Celtic Molecular Diagnostics). All incubations for tissue cell culture were conducted in a 37 °C, 5% CO2, and 95% humidity incubator.
(§2) The cytotoxicity of compounds was evaluated in TZM-bl cells since these cells are susceptible to HIV infections and would be used for the evaluation of HIV entry inhibition by 3-benzoylbenzofurans and pyrazole derivatives.[74] MTT dye (3-(4,5-dimethylthiazol-2-yl)-2,5-diphenyltetrazolium bromide), which is reduced by viable cells to produce […] purple formazan, was then measured and correlated with cell viability.[75] TZM-bl cells were cultured to confluency in DMEM containing 10% FBS and harvested by centrifugation at 1200 × g for 5 minutes. The cells were counted at 1 × 10^5 cells per mL per well and were seeded overnight, followed by treatment with serially diluted compounds from 500 to 0.98 μM for 48 hours. The peripheral blood mononuclear cells (PBMCs) were isolated from the blood of HIV-negative volunteers, treated with phytohaemagglutinin-protein (PHA, 4 μg mL^−1) to stimulate the cells for 2 hours. PBMCs were diluted in RPMI-1640 medium, counted and 1 × 10^6 cells per mL were treated with compounds (500 to 0.98 μM) for 48 hours. Cells were harvested by centrifugation at 1200 × g for 5 minutes, and the supernatants were removed. For the PBMCs, MTS dye (3-(4,5-dimethylthiazol-2-yl)-5-(3-carboxymethoxyphenylo)-2-(4-sulfophenyl)-2H-tetrazolium) was used.[76] A 100 μL of tetrazolium dye (5 mg mL^−1 MTT prepared in DMEM or 1 : 9 dilution MTS prepared in RPMI-1640) was added to the wells and incubated for 4 to 24 hours. MTT samples were solubilized with 100 μL solubilization buffer (1 mL HCl: 9 mL isopropanol) for 30 minutes, and the absorbance reading was taken at 550 nm and 690 nm wavelengths. MTS sample readings were taken at 490 nm without a solubilization step using the SpectraMax^R Paradigm^R Multi-Mode Detection Platform plate reader (Molecular Devices, California, USA).

HIV-1 Q23 pseudovirus = experiment: HIV-1 whole virus inhibition assay, Q23 pseudovirus (luciferase, TZM-bl cells); assay type: cell-based
Description: (§3) The HIV pseudoviruses were produced from the plasmids that were kindly donated by Dr Mthunzi-Kufa (CSIR, South Africa). Competent DH5α cells and STBL2 cells were transformed with envelope (CAP210.2.00.E8 and Q23.17) and backbone plasmid (HIV-1 SG3 ΔEnv) through heat-shock at 42 °C for 90 seconds and cooled in ice for 5 minutes. The transformed cells were grown in Luria Bertani medium containing 100 μg mL^−1 ampicillin and glycerol stocks were prepared. The transformed cells were grown at 37 °C in a 200 rpm shaking incubator overnight and the plasmids were isolated from the cells using a GeneJET plasmid Miniprep Kit (ThermoFisher Scientific Inc). The purity of the isolated plasmids was assessed for purity using Nanodrop. The HEK 293T cells were co-transfected with the backbone (10 μg) and envelope plasmids (5 μg) using the PolyFect Transfection Reagent (QIAGEN N.V) for 8–12 hours and the transfected cells were grown for 48 hours producing pseudoviruses which were collected, and stocks stored at −80 °C.
(§4) The compounds were serial diluted from 100 to1.56 μM in 96 well plates (Separation Scientific SA (Pty) Ltd) and incubated with either CAP210 or Q23 pseudoviruses (200 TCID50) and incubated for 1 hour. The TZM-bl cells (1 × 10^5 cells per mL containing 7.5 μg mL^−1 DEAE-dextran) were added and incubated for 48 hours. The 96 well plates were centrifuged, and the supernatant was removed leaving only 50 μL in each well. The Bright-Glo™ Luciferase substrate (Anatech Instruments (Pty) Ltd) (50 μL) was added to each well and incubated for 2 minutes in the dark and chemiluminescence readings were taken in a Corning® 96-well white polystyrene plate using a SpectraMax® Paradigm® Multi-Mode Microplate Reader.

HIV-1 CAP210 pseudovirus = experiment: HIV-1 whole virus inhibition assay, CAP210 pseudovirus (luciferase, TZM-bl cells); assay type: cell-based
Description: as §3, §4

CAP210 pseudovirus = experiment: Time of drug addition assay, CAP210 pseudovirus in TZM-bl cells; assay type: cell-based, HIV-1; conditions: added 0, 2, 4, 6, 8 hours post-infection
Description: Fig. 5 Time of addition assay of CAP210 HIV infection treated with active compounds. TZM-bl cells were infected with CAP210 pseudoviruses and treated with compounds at various hours post-infection. NVP, 3g, and 4b were used at 3 μM, while 5f and 5h were used at 25 μM. The bars represent the mean ± SEM obtained from three independent experiments.
TZM-bl cells (1 × 10^5 cells per mL containing 7.5 μg mL^−1 DEAE-dextran) were infected with CAP210 pseudovirus at 400 TCID50 and incubated at 37 °C for 48 hours. The compounds were added to the wells at various time points (0, 2, 4, 6, and 8 hours) post-infection. […] After 48 hours, the cells were centrifuged at 1200 × g for 5 minutes, culture media was removed, leaving 50 μL, and Bright-Glo substrate (50 μL) was added to detect luciferase activity for 2 minutes at 37 °C. Inhibition of HIV pseudoviruses by active compounds was detected by reading for chemiluminescence using a Corning® 96-well white polystyrene using the SpectraMax® Paradigm® Multi-Mode Microplate Reader.

HIV-1 PR = molecular target: T1, HIV-1 PR (Human immunodeficiency virus type 1 group M subtype B, UniProt P04585); experiment: HIV-1 protease inhibition assay (fluorogenic substrate); assay type: biochemical; conditions: for SI (HIV-1 PR): CC50 PBMCs / IC50 HIV-1 PR
T1 construct: 2 μL recombinant HIV-PR (0.2 μg mL^−1) was added only to reaction wells
Description: Compounds were serially diluted in protease assay buffer (0.1 M CH3COONa, 1 M NaCl, 1 mM EDTA, 1 mM DTT, and 1 mg mL^−1 BSA; pH 4.7), making a final concentration of 75 to 9.4 μM, and 49 μL of compounds were added to wells. 49 μL protease substrate 1 (10 μM) was added to each well, and 2 μL recombinant HIV-PR (0.2 μg mL^−1) was added only to reaction wells except for reaction blanks, where it was replaced with 2 μL assay buffer. The solutions were mixed and incubated at 37 °C for 1 hour. Endpoint fluorescence readings at an excitation wavelength of 370 nm and an emission wavelength of 520 nm.

[2] = Cytotoxicity in PBMCs by MTS assay; assay type: cell-based; conditions: human, peripheral blood mononuclear cells (PBMCs), PHA-stimulated, HIV-negative PBMCs
Description: as §2

TZM-bl cells = experiment: Cytotoxicity in TZM-bl cells by MTT assay; assay type: cell-based; conditions: pyrazole vs benzofuran precursor
Description: as §1, §2

[3] = system: HIV-1 subtype C pseudoviruses; conditions: cited from earlier work
[4] = TZM-bl, 48 h, read-out: IC50 (μM) Q23, Q23 pseudovirus, TZM-bl cells, 48 hours
[5] = TZM-bl, 48 h, read-out: IC50 (μM) CAP210, CAP210 pseudovirus, TZM-bl cells, 48 hours
[6] = lowest concentrations tested, Fig. 3

Compound	CC50 at 48 h [1] [µM]	IC50 (HIV-1 Q23 pseudovirus; [4]) [µM]	IC50 (HIV-1 CAP210 pseudovirus; [5]) [µM]	also measured
COc1ccc(Br)cc1-c1n[nH]cc1-c1cc(OC)c2ccccc2c1O [5d, 2-[3-(5-Bromo-2-methoxyphenyl)-1H-pyrazol-4-yl]-4-methoxynaphthalen-1-ol]	75 ± 6.4	16.2 ± 2.55	20.8 ± 1	
COc1ccc(C(=O)c2coc3ccc(O)cc23)c(OC)c1OC [3g, (5-Hydroxybenzofuran-3-yl)(2,3,4-trimethoxyphenyl)methanone]	79.9 ± 7.25			inhibition of HIV infection by time of addition (CAP210 pseudovirus; 3 μM): inhibit HIV infections for up to 8 hours; IC50 (HIV-1 PR): 70.9 ± 12.4 µM; SI (HIV-1 PR) (HIV-1 PR): 1.3; CC50 at 48 h [2]: 89.5 ± 11.6 µM
COc1ccc(OC)c(C(=O)c2coc3cc(C)c(OC)c(C)c23)c1 [4a, (2,5-Dimethoxyphenyl)(5-methoxy-4,6-dimethyl-1-benzofuran-3-yl)methanone]	59.1 ± 6.56	18.1 ± 1.78	8.12 ± 2.56	
COc1ccc(-c2n[nH]cc2-c2cc(O)ccc2O)c(OC)c1OC [5g, 2-[3-(2,3,4-Trimethoxyphenyl)-1H-pyrazol-4-yl]benzene-1,4-diol]	140 ± 17.1	< 10	13.8 ± 1.7	IC50 (HIV-1 Q23 pseudovirus; {}): 9.93 ± 0.69 µM
COc1ccc(OC)c(C(=O)c2coc3c(C)cc(OC)c(C)c23)c1 [4b, (2,5-Dimethoxyphenyl)(5-methoxy-4,7-dimethyl-1-benzofuran-3-yl)methanone]	8.42 ± 1.16			inhibition of HIV infection by time of addition (CAP210 pseudovirus; 3 μM): inhibit HIV infections for up to 8 hours; IC50 (HIV-1 PR): 57.5 ± 10.1 µM; SI (HIV-1 PR) (HIV-1 PR): 0.7; CC50 at 48 h [2]: 41.3 ± 6.78 µM
COc1cc(F)ccc1-c1n[nH]cc1-c1cc(O)ccc1O [5f, 2-[3-(4-Fluoro-2-methoxyphenyl)-1H-pyrazol-4-yl]benzene-1,4-diol]	36.1 ± 7.95			anti-HIV activity (Q23) (HIV-1 Q23 pseudovirus; [6]): over 90%; anti-HIV activity (CAP210) (HIV-1 CAP210 pseudovirus; [6]): over 90%; inhibition of HIV infection by time of addition (CAP210 pseudovirus; 25 μM): only inhibited HIV infections when added on the onset of infection; IC50 (HIV-1 PR): 31.6 ± 3.83 µM; SI (HIV-1 PR) (HIV-1 PR): 3.1; CC50 at 48 h [2]: 98.2 ± 1.3 µM
COc1ccc(OC)c(C(=O)c2coc3c2cc(OC)c2ccccc23)c1 [4c, (2,5-Dimethoxyphenyl)(5-methoxynaphtho[1,2-b]furan-3-yl)methanone]	9.65 ± 2.37	12.6 ± 0.53	2.43 ± 1.28	
COc1ccc(Br)cc1C(=O)c1coc2c1cc(OC)c1ccccc12 [4d, (5-Bromo-2-methoxyphenyl)(5-methoxynaphtho[1,2-b]furan-3-yl)methanone]	7.77 ± 1.54	22.4 ± 3.47	3.28 ± 1.48	
COc1cc(F)ccc1C(=O)c1coc2c1cc(OC)c1ccccc12 [4e, (4-Fluoro-2-methoxyphenyl)(5-methoxynaphtho[1,2-b]furan-3-yl)methanone]	35.2 ± 2.32	20.9 ± 2.2	4.27 ± 0.19	
COc1ccc(OC)c(-c2n[nH]cc2-c2c(O)cc(C)c(OC)c2C)c1 [5a, 2-[3-(2,5-Dimethoxyphenyl)-1H-pyrazol-4-yl]-4-methoxy-3,5-dimethylphenol]	88.9 ± 22.1	13.3 ± 1.12	18.4 ± 3.2	decrease in cytotoxicity versus precursor (TZM-bl cells): 1 fold
COc1ccc(OC)c(-c2n[nH]cc2-c2cc(OC)c3ccccc3c2O)c1 [5c, 2-[3-(2,5-Dimethoxyphenyl)-1H-pyrazol-4-yl]-4-methoxynaphthalen-1-ol]	47.7 ± 17.7	13 ± 3.75	20.5 ± 6.8	
COc1ccc(OC)c(-c2n[nH]cc2-c2c(C)c(OC)cc(C)c2O)c1 [5b, 2-[3-(2,5-Dimethoxyphenyl)-1H-pyrazol-4-yl]-4-methoxy-3,6-dimethylphenol]	46.5 ± 6.66	10.1 ± 1.66	7.87 ± 0.91	
COc1cc(F)ccc1C(=O)c1coc2ccc(O)cc12 [3f, (4-fluoro-2-methoxyphenyl)(5-hydroxy-1-benzofuran-3-yl)methanone]	41.9 ± 6.33	40.6 ± 7.85	11.2 ± 0.31	
COc1ccc(OC)c(C(=O)c2coc3ccc(O)cc23)c1 [3h, (5-Hydroxybenzofuran-3-yl)(2,5-dimethoxyphenyl)methanone]	50 ± 10.5	5.74 ± 1.51	4.45 ± 0.82	
COc1cc(F)ccc1-c1n[nH]cc1-c1cc(OC)c2ccccc2c1O [5e, 2-[3-(4-Fluoro-2-methoxyphenyl)-1H-pyrazol-4-yl]-4-methoxynaphthalen-1-ol]	103 ± 11.1	15.7 ± 8.17	29.09 ± 0.18	
COc1ccc(OC)c(-c2n[nH]cc2-c2cc(O)ccc2O)c1 [5h, 2-[3-(2,5-Dimethoxyphenyl)-1H-pyrazol-4-yl]benzene-1,4-diol]	142 ± 13.2	< 10	< 10	IC50 (HIV-1 Q23 pseudovirus; {}): 8.14 ± 2.63 µM; IC50 (HIV-1 CAP210 pseudovirus; {}): 6.31 ± 0.31 µM; inhibition of HIV infection by time of addition (CAP210 pseudovirus; 25 μM): only inhibited HIV infections when added on the onset of infection; IC50 (HIV-1 PR): 50.7 ± 0.78 µM; SI (HIV-1 PR) (HIV-1 PR): 1.6; CC50 at 48 h [2]: 83.2 ± 9.7 µM
Cc1cn([C@H]2C[C@H](N=[N+]=[N-])[C@@H](CO)O2)c(=O)[nH]c1=O [zidovudine]				IC50 [3]: 0.05 µM
